Measured values from patent publication US20130123271A1, “HETEROCYCLIC COMPOUNDS, THEIR PREPARATION AND THERAPEUTIC APPLICATION” (FOVEA PHARMACEUTICALS, priority 2010, published 2013).
≈ marks a conversion by molar mass, not a printed value.

How the values were obtained:
[1] = biological target: h Src (Homo sapiens, UniProt P12931); test: LC3000 Src assay (off-chip incubation mobility-shift kinase assay, Caliper LabChip); type: biochemical; settings: ATP at KM apparent
Description: The screening and profiling experiments described here were performed using Caliper Life Sciences' proprietary LabChip™ technology. Caliper LC3000 and EZ Reader II instruments are widely used throughout the drug discovery process for assay development, primary screening, selectivity screening, generation of Structure-Activity Relationships (SARs) and Mechanism of Action (MOA) studies. The LabChip™ technology is particularly well suited for enzymatic ‘targets’ such as kinases, proteases, phosphatases, histone deacetylases (HDAC), phosphodiesterases (PDE), and acyl-transferases. The key benefit of the technology is the separation and direct measurement of substrates and products, which allows for higher signal-to-noise ratios and fewer false positive/negative results. This direct measurement also allows for the identification and elimination of enzymatic activities that are not associated with the kinase reaction of interest.
The off-chip incubation mobility-shift kinase assay uses a microfluidic chip to measure the conversion of a fluorescent peptide substrate to a phosphorylated product. The reaction mixture, from a microtiter plate well, is introduced through a capillary sipper onto the chip, where the nonphosphorylated substrate and phosphorylated product are separated by electrophoresis and detected via laser-induced fluorescence. […] The phosphorylated product migrates through the chip faster than the non-phosphorylated substrate, and signals from the two forms of the peptide appear as distinct peaks. Caliper's data analysis software (HTSWA) determines peak heights, from which the ratio of product to the peak sum P/(P+S) and percent (%) conversion is calculated. This value is used to compare compound wells to control wells present on the plate, and thereby determine the % inhibition values for the compound. The formula used to calculate % inhibition is as follows, where C100% is the average % conversion of the 100% activity wells and C0% is the average % conversion of the 0% activity wells:
(1-(%conversionofsample—C0%)/(C100%−C0%))*100
Compounds were dissolved in 100% DMSO and diluted to 25× the final desired screening concentration. Serial dilutions were performed to obtain the concentrations specified for particular studies. One μl of each concentration was transferred, in duplicate, to a 384-well Greiner microtiter plate. Generally, 12 μL of enzyme buffer containing purified kinase (various suppliers), 100 mM HEPES, pH 7.5, 1 mM DTT (Calbiochem, 2333153), 10 mM MgCl2 (Sigma, M-1028) or 10 mM MnCl2 (Sigma, M-1787) (assay specific), and 0.002% Brij-35 (Sigma, B4184) was added to each well. Compound and enzyme were allowed to pre-incubate for 15 minutes. 12 μL of peptide/ATP buffer containing 100 mM HEPES, pH 7.5, 1.5 μM fluorescein-labeled peptide (specific to kinase of interest), ATP (at KM apparent, Sigma, A9187), and 0.002% Brij-35 was then added to each well to initiate the reaction. Generally, reactions were incubated for 1-1.5 hours at room temperature to obtain adequate (15-40%) conversion of peptide to phosphorylated product in the linear range of the reaction. Reactions were terminated with the addition of 45 μL of Stop Buffer (containing 20 mM EDTA). Plates were then read on the LabChip 3000 using a 12-sipper LabChip. % conversion values and % inhibition values were obtained as described and IC50 curves of compounds were generated using Graphpad Prism Version 4 or 5.01. A nonlinear curve fit using the sigmoidal dose response—variable slope fit was used to graph IC50 curves and determine IC50 values and hillslopes.

[2] = biological target: Src/Lyn (h) (Homo sapiens, UniProt P12931); test: In vitro potency Src/Lyn (h), Table 2; type: biochemical
[3] = Solubility in HPbCD 7% pH 5; type: physicochemical; settings: HPbCD 7% solution, aqueous with cosolvent or surfactant or cyclodextrin, read-out: Solubility HPbCD 7% pH 5 (mg/ml) measured
[4] = Ussing chamber permeation study through rabbit cornea; type: in vitro ADME; settings: 37° C., 0.5 cm2 rabbit cornea
Description: Ussing chambers were used for the permeation study each day of experiment.
3 mL of solution were placed in donor side of Ussing chambers and 3 mL of Ringer solution were in receiver side. Freshly removed rabbit corneal tissue were placed between the two half chambers.
Temperature was maintained at 37° C. during all the flux study and oxygenation was provided by a continuous perfusion of carbogen (oxygen/carbonic acid) (95/5),
Rabbits were euthanized and the 6 corneas were removed and used immediately. 500 μL of receptor side liquid were removed from Ussing chambers and replaced by fresh buffer. The samples were analyzed immediately (less than 10 hours after collection).
100 μL of donor side liquid were removed from Ussing chambers and not replaced. The samples were diluted immediately (less than 1 hour) after collection and analyzed less than 10 hours after dilution. Analysis was performed on HPLC (Stationary phase: C18 (Particle size: 3 μm Length: 5 cm, using a gradient from 5 to 95% ACN/water (0.1% formic acid)).
At the end of the sampling period, all corneas were discarded.

[5] = Colour of the compound; type: physicochemical; settings: powder
[6] = tested on: choroidal neovascularisation; test: Rat model of laser-induced choroidal neovascularization (CNV); type: in vivo, rat (Brown Norway); settings: topical solution 6 mg/mL (10 μL) two times daily, 14 days after laser induction
Description: We investigated the efficacy of topical administration of compound 25 of the invention in reducing choroidal neovascularisation in the rat (Brown Norway, 8 weeks of age).
On day 1, CNV was performed by laser photocoagulation-induced rupture of Bruch's membrane as previously described (Edelman and Casto 2000). An Argon green laser irradiation was delivered through the slit lamp for induce photocoagulation. In each eye, 6-7 focal laser spots were applied concentrically approximately two optic discs from the center. Immediately afterwards, rats were treated with topical solution 6 mg/mL (10 μL) two times daily until sacrifice. 14 days after laser induction of CNV blood vessels were visualized on retinal pigment epithelium-choroid-sclera flat-mount by immunostaining with isolectin B4.
Assessment of CNV response to treatment was performed after capture and area measurement of immunostained vessels representing CNV at the site of laser burn.
Pixel area of vascular budding was traced by 2 trained masked investigators and converted to μm^2.

h Src, sequence (P12931 whole entry): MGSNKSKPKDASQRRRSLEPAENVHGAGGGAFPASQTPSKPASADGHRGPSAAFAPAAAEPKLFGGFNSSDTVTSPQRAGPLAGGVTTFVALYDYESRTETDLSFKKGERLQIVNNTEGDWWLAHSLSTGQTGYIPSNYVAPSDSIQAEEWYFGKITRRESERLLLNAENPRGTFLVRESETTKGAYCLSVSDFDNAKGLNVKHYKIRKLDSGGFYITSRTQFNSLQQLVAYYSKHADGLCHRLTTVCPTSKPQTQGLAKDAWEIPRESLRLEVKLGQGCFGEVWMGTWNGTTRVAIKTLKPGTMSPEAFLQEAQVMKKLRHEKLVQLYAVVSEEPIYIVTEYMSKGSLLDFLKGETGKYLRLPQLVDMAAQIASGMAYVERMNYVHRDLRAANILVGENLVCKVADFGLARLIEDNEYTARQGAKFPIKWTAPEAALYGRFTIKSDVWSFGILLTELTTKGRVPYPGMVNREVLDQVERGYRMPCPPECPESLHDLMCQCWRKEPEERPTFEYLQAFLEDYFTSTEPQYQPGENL
Src/Lyn (h), sequence (P12931 whole entry): as above

Compound	IC50 [1]	IC50 [2]	solubility [3]	Flux between 2 and 4 hours through 0.5 cm2 of rabbit cornea (μg/h/cm2) [4]	Colour [5]	reduction of CNV compared to control [6]
Oc1ccc(Cl)c(-c2ccc3nc(Nc4ccc(OCCN5CCCC5)nc4)nn3c2)c1 [Compound 25, 4-Chloro-3-{2-[6-(2-pyrrolidin-1-yl-ethoxy)-pyridin-3-ylamino]-[1,2,4]triazolo[1,5-a]pyridin-6-yl}-phenol]	23 nM	23 nM	6.5 mg/mL (≈ 14.4 mM)	14 μg/h/cm2	White	15%
Cc1nc(Nc2nc3ccc(-c4cc(O)ccc4Cl)cn3n2)cc(N2CCN(CCO)CC2)n1 [Compound 27, 4-Chloro-3-(2-{6-[4-(2-hydroxy-ethyl)-piperazin-1-yl]-2-methyl-pyrimidin-4-ylamino}-[1,2,4]triazolo[1,5-a]pyridin-6-yl)-phenol]	83 nM	83 nM	> 10 mg/mL	19 μg/h/cm2	White	
Cc1cc(Nc2nc3ccc(-c4cc(O)ccc4Cl)cn3n2)cc(N2CCN(CCO)CC2)c1 [Compound 28, 4-Chloro-3-(2-{3-[4-(2-hydroxy-ethyl)-piperazin-1-yl]-5-methyl-phenylamino}-[1,2,4]triazolo[1,5-a]pyridin-6-yl)-phenol]	3 nM	3 nM	7.5 mg/mL (≈ 15.7 mM)	8 μg/h/cm2	White	
OCc1cc(Nc2ncc3cc(-c4cc(O)ccc4Cl)ccc3n2)ccn1 [Compound 43, 4-Chloro-3-[2-(2-hydroxymethyl-pyridin-4-ylamino)-quinazolin-6-yl]-phenol]	0.7 nM	0.7 nM	1.5 mg/mL (≈ 3.96 mM)	6 μg/h/cm2	Pale	
OCCn1cnc2cc(Nc3ncc4cc(-c5cc(O)ccc5Cl)ccc4n3)ccc21 [Compound 45, 4-Chloro-3-{2-[1-(2-hydroxy-ethyl)-1H-benzoimidazol-5-ylamino]-quinazolin-6-yl}-phenol]	0.5 nM	1 nM	2.3 mg/mL (≈ 5.33 mM)	8 μg/h/cm2	Pale	
Cc1cc(Nc2ncc3cc(-c4cc(O)ccc4Cl)ccc3n2)cc(N2CCN(CCO)CC2)c1 [Compound 46, 4-Chloro-3-(2-{3-[4-(2-hydroxy-ethyl)-piperazin-1-yl]-5-methyl-phenylamino}-quinazolin-6-yl)-phenol]	0.8 nM	0.8 nM	> 10 mg/mL	13 μg/h/cm2	Pale	
OCc1cc(CO)cc(Nc2nc3ccc(-c4cc(O)ccc4Cl)cn3n2)c1 [compound 5, 3-[2-(3,5-Bis-hydroxymethyl-phenylamino)-[1,2,4]triazolo[1,5-a]pyridin-6-yl]-4-chloro-phenol]	5 nM	5 nM	1.3 mg/mL (≈ 3.28 mM)	13 μg/h/cm2	White	
OCCN1CCN(c2ccc(Nc3nc4ccc(-c5cc(O)ccc5Cl)cn4n3)cn2)CC1 [compound 10, 4-Chloro-3-(2-{6-[4-(2-hydroxy-ethyl)-piperazin-1-yl]-pyridin-3-ylamino}-[1,2,4]triazolo[1,5-a]pyridin-6-yl)-phenol]	14 nM	14 nM	5.69 mg/mL (≈ 12.2 mM)	30 μg/h/cm2	White	
OCc1cc(Nc2nc3ccc(-c4cc(O)ccc4Cl)cn3n2)ccn1 [compound 13, 4-Chloro-3-[2-(2-hydroxymethyl-pyridin-4-ylamino)-[1,2,4]triazolo[1,5-a]pyridin-6-yl]-phenol]	27 nM	27 nM	2.38 mg/mL (≈ 6.47 mM)	13 μg/h/cm2	White	
OCc1cc(CO)cc(Nc2ncc3cc(-c4cc(O)ccc4Cl)ccc3n2)c1 [compound 16, 3-[2-(3,5-Bis-hydroxymethyl-phenylamino)-quinazolin-6-yl]-4-chloro-phenol]	0.1 nM	< 1 nM	1.2 mg/mL (≈ 2.94 mM)	17 μg/h/cm2	Pale	
